This is an account of results in patent US10668067B2, “Pyridine sulfonamides” (AMGEN INC., priority 2016, dated 2020).

human Nav1.7, sequence (Q15858 whole entry): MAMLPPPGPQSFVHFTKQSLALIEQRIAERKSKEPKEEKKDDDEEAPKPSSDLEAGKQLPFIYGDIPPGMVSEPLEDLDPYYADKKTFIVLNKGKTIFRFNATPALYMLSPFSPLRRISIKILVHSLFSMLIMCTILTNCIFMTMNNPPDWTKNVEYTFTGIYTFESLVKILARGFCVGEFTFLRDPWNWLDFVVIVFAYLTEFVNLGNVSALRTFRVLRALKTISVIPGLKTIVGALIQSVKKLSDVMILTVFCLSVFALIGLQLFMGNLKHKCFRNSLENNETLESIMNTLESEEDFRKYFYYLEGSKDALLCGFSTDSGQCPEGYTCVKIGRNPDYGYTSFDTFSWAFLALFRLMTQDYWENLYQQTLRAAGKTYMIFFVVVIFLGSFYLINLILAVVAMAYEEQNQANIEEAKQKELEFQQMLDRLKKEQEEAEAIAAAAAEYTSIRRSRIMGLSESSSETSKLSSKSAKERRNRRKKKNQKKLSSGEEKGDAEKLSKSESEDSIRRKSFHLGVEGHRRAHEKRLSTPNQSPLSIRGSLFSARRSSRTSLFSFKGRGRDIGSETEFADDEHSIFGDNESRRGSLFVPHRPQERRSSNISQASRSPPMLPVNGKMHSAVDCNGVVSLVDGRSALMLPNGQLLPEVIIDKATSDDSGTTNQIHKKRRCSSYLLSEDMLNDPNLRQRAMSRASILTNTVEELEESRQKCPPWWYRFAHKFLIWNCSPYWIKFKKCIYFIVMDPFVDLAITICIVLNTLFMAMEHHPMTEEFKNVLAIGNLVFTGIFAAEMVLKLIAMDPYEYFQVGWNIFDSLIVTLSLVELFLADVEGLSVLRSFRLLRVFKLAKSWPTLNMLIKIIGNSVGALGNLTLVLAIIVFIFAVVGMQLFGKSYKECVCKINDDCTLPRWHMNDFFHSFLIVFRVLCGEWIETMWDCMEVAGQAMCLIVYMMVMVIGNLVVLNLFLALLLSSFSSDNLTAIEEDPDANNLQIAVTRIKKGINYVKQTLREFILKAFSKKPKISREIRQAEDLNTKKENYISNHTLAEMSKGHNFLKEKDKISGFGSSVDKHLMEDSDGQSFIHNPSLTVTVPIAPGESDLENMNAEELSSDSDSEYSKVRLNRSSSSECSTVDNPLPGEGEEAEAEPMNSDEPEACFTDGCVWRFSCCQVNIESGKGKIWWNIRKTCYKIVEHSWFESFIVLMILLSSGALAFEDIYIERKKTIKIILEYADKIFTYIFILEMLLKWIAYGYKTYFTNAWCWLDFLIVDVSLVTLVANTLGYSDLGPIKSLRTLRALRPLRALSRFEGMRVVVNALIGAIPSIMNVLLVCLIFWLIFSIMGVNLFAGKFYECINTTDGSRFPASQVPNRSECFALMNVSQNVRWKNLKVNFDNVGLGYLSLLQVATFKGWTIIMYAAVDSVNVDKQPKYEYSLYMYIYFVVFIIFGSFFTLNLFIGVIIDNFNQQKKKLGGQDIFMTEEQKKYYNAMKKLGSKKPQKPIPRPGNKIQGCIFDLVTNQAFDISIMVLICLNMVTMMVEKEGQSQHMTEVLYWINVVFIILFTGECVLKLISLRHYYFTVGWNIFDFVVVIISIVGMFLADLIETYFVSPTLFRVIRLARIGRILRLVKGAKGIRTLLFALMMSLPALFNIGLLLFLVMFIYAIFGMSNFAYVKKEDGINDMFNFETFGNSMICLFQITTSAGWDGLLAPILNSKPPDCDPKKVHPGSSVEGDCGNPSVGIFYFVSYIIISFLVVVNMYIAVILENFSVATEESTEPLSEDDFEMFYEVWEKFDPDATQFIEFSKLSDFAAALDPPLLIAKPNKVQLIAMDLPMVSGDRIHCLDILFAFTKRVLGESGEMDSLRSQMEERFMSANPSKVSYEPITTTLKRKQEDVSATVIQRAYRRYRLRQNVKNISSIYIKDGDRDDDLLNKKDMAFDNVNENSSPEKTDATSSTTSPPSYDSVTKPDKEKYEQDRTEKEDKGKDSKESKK

The assay has as its target human Nav1.7 (Homo sapiens (Human), UniProt Q15858). Briefly: Nav 1.7 In Vitro PX Assay (PatchXpress whole cell voltage clamp). Format: cell-based. Conditions: in-vitro Nav 1.7 PX data. The procedure, abridged:
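Partially inactivated channels (20–50% inactivation at holding potential) probed by 20 ms pulses to −10 mV repeated at 0.1 Hz, in stable human Nav1.7 HEK293 cells.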
By IC50 is commonly meant the concentration that gives 50% inhibition. A high value points to a need for much substance. With `CNC(=O)N(c1ccc(S(=O)(=O)Nc2ncco2)cn1)c1cc(F)c(-c2ccc(F)c(OC(F)(F)F)c2)cc1OC` [Example 3-14, 6-((2,4′-difluoro-5-methoxy-3′-(trifluoromethoxy)-4-biphenylyl)(methylcarbamoyl)amino)-N-1,3-oxazol-2-yl-3-pyridinesulfonamide], the IC50 worked out at 17 nM.
`CNC(=O)N(c1ccc(S(=O)(=O)Nc2ccon2)cn1)c1cc(-c2cc(Cl)cc(OC)c2)ccc1OC` [Example 4-1, 6-((3′-chloro-4,5′-dimethoxy-3-biphenylyl)(methylcarbamoyl)amino)-N-3-isoxazolyl-3-pyridinesulfonamide] came in with an IC50 of 461 nM.
Regarding `CNC(=O)N(c1ccc(S(=O)(=O)Nc2ccon2)cn1)c1cc(-c2cccc(C(F)(F)F)c2)ccc1OC` [Example 4-2, N-3-isoxazolyl-6-((4-methoxy-3′-(trifluoromethyl)-3-biphenylyl)(methylcarbamoyl)amino)-3-pyridinesulfonamide], the IC50 is 187 nM.
Compound `CNC(=O)N(c1ccc(S(=O)(=O)Nc2ccon2)cn1)c1cc(-c2cccc(F)c2)ccc1OC` [Example 4-3, 6-((3′-fluoro-4-methoxy-3-biphenylyl)(methylcarbamoyl)amino)-N-3-isoxazolyl-3-pyridinesulfonamide] had an IC50 of 2370 nM.
On to `CNC(=O)N(c1ccc(S(=O)(=O)Nc2ccon2)cn1)c1cc(-c2cc(F)cc(Cl)c2)ccc1OC` [Example 4-4, 6-((3′-chloro-5′-fluoro-4-methoxy-3-biphenylyl)(methylcarbamoyl)amino)-N-3-isoxazolyl-3-pyridinesulfonamide], for which the 50% inhibitory concentration (IC50) is 173 nM.
`CNC(=O)N(c1ccc(S(=O)(=O)Nc2ccon2)cn1)c1cc(-c2ccc(C)c(Cl)c2)ccc1OC` [Example 4-5, 6-((3′-chloro-4-methoxy-4′-methyl-3-biphenylyl)(methylcarbamoyl)amino)-N-3-isoxazolyl-3-pyridinesulfonamide] showed an IC50 of 442 nM.
`CNC(=O)N(c1ccc(S(=O)(=O)Nc2ccon2)cn1)c1cc(-c2cccc(C(F)(F)F)c2)c(Cl)cc1OC` [Example 4-6, 6-((6-chloro-4-methoxy-3′-(trifluoromethyl)-3-biphenylyl)(methylcarbamoyl)amino)-N-3-isoxazolyl-3-pyridinesulfonamide]: the IC50 came out at 90 nM.
The compound `CNC(=O)N(c1ccc(S(=O)(=O)Nc2ccon2)cn1)c1cc(-c2cccc(F)c2)c(Cl)cc1OC` [Example 4-7, 6-((6-chloro-3′-fluoro-4-methoxy-3-biphenylyl)(methylcarbamoyl)amino)-N-3-isoxazolyl-3-pyridinesulfonamide] gave an IC50 of 891 nM.
In turn, `CNC(=O)N(c1ccc(S(=O)(=O)Nc2ccon2)cn1)c1cc(-c2cc(Cl)cc(OC)c2)c(Cl)cc1OC` [Example 4-8, 6-((3′,6-dichloro-4,5′-dimethoxy-3-biphenylyl)(methylcarbamoyl)amino)-N-3-isoxazolyl-3-pyridinesulfonamide] displayed a 50% inhibitory concentration (IC50) of 81 nM.
As to `CNC(=O)N(c1ccc(S(=O)(=O)Nc2ccon2)cn1)c1cc(-c2ccc(C)c(Cl)c2)c(Cl)cc1OC` [Example 4-9, 6-((3′,6-dichloro-4-methoxy-4′-methyl-3-biphenylyl)(methylcarbamoyl)amino)-N-3-isoxazolyl-3-pyridinesulfonamide], half-maximal inhibition (IC50) was put at 76 nM.
As for `COc1cc(-c2cccc(C(F)(F)F)c2)c(Cl)cc1N(C(N)=O)c1ccc(S(=O)(=O)Nc2ccon2)cn1` [Example 5-1, 6-(1-(2-chloro-5-methoxy-3′-(trifluoromethyl)-[1,1′-biphenyl]-4-yl)ureido)-N-(isoxazol-3-yl)pyridine-3-sulfonamide], the half-maximal inhibitory concentration (IC50) was 7 nM.
On to `COc1cc(-c2ccc(Cl)c(F)c2)c(Cl)cc1N(C(N)=O)c1ccc(S(=O)(=O)Nc2ccon2)cn1` [Example 5-2, 6-(carbamoyl(2,4′-dichloro-3′-fluoro-5-methoxy-4-biphenylyl)amino)-N-3-isoxazolyl-3-pyridinesulfonamide], for which the IC50 was found to be 10 nM.
On to `COc1cc(-c2cc(Cl)cc(C#N)c2)c(Cl)cc1N(C(N)=O)c1ccc(S(=O)(=O)Nc2ccon2)cn1` [Example 5-3, 6-(carbamoyl(2,3′-dichloro-5′-cyano-5-methoxy-4-biphenylyl)amino)-N-3-isoxazolyl-3-pyridinesulfonamide], for which 31 nM corresponded to half-maximal inhibition (IC50).
Turning to `COc1cc(-c2cc(OC)c(N(C(N)=O)c3ccc(S(=O)(=O)Nc4ccon4)cn3)cc2Cl)cc(C(F)(F)F)c1` [Example 5-4, 6-(carbamoyl(2-chloro-3′,5-dimethoxy-5′-(trifluoromethyl)-4-biphenylyl)amino)-N-3-isoxazolyl-3-pyridinesulfonamide], the 50% inhibitory concentration (IC50) is 7 nM.
`COc1cc(-c2cccc(OCC(F)(F)F)c2)c(Cl)cc1N(C(N)=O)c1ccc(S(=O)(=O)Nc2ccon2)cn1` [Example 5-5, 6-(carbamoyl(2-chloro-5-methoxy-3′-(2,2,2-trifluoroethoxy)-4-biphenylyl)amino)-N-3-isoxazolyl-3-pyridinesulfonamide] displayed an IC50 of 16 nM.
In the case of `COC(=O)N(c1ccc(S(=O)(=O)Nc2ccon2)cn1)c1cc(Cl)c(-c2cccc(C(F)(F)F)c2)cc1OC` [Example 6, Methyl (2-chloro-5-methoxy-3′-(trifluoromethyl)-[1,1′-biphenyl]-4-yl)(5-(N-(isoxazol-3-yl)sulfamoyl)pyridine-2-yl)carbamate], the IC50 was determined as 167 nM.
Compound `CNC(=O)N(c1ccc(S(=O)(=O)Nc2ccon2)cn1)c1cc(Cl)c(C#CC2CCCC2)cc1OC` [Example 7, 6-((5-chloro-4-(cyclopentylethynyl)-2-methoxyphenyl)(methylcarbamoyl)amino)-N-3-isoxazolyl-3-pyridinesulfonamide] yielded an IC50 of 68 nM.
`CNC(=O)N(c1ccc(S(=O)(=O)Nc2ccon2)cn1)c1cc(F)c(CCC(F)(F)F)cc1OC` [Example 8, 6-((5-fluoro-2-methoxy-4-(3,3,3-trifluoropropyl)phenyl)(methylcarbamoyl)amino)-N-3-isoxazolyl-3-pyridinesulfonamide] returned an IC50 of 849 nM.
For the compound `CNC(=O)N(c1ccc(S(=O)(=O)Nc2ccon2)cc1)c1ccc(-c2ccc(Cl)c(C)c2)cc1OC` [Example 9, 4-(1-(4′-chloro-3-methoxy-3′-methyl-[1,1′-biphenyl]-4-yl)-3methylureido)-N-(isoxazol-3-yl)benzenesulfonamide], the IC50 amounted to 400 nM.
To `CNC(=O)N(c1ccc(S(=O)(=O)Nc2ccon2)cc1)c1cc(F)c(-c2ccc(F)c(OC(F)(F)F)c2)cc1OC` [Example 10, 4-(1-(2,4′-difluoro-5-methoxy-3′-(trifluoromethoxy)-[1,1′-biphenyl]-4-yl)-3-methylureido)-N-(isoxazol-3-yl)benzenesulfonamide] belongs 210 nM.
